Our source for the IC50 values is patent US20250236609A1, “VPS34 INHIBITORS AND METHODS OF USE THEREOF” (Deciphera Pharmaceuticals, LLC, priority 2023, published 2025).

Each structure is given as a SMILES string. Where only a bound is given, the exact number is not on record here.

The target of the assay is VPS34 (Homo sapiens (Human), UniProt Q8NEB9). Put plainly: Biochemical Assay for VPS34 (ADP-Glo kinase activity assay). As to conditions: 25 nM VPS34, 1 mM ATP, 1-hour incubation at 37° C.; read-out: VPS34 (Inhibition of biochemical activity of VPS34, IC50). The method, then: Activity of VPS34 kinase was determined using an ADP-Glo kinase activity assay (Promega Corp). Assays were conducted in 384-well plates (5 μL assay volume) using 25 nM VPS34 (ThermoFisher Scientific), […] PI:3PS Lipid Kinase Substrate (Promega Corp.), and 1 mM ATP in kinase buffer. Inhibition of VPS34 was measured by adding serial diluted test compound (final assay concentration of 0.1% DMSO) followed by a 1-hour incubation at 37° C. ADP-Glo reagent was then added ([…]) followed by a 40 min incubation at rt. Kinase detection reagent was then added ([…]) and followed by a 60 min incubation at rt. Luminescence was then detected. The RLU at each compound concentration of was converted to percent inhibition using controls (i.e., reaction with no test compound and reaction with a known inhibitor) and IC50 values were calculated by fitting a four-parameter sigmoidal curve to the data using GeneData Screener software.
Chain of VPS34 (Q8NEB9 other isoform, or with tags, fused parts or gaps): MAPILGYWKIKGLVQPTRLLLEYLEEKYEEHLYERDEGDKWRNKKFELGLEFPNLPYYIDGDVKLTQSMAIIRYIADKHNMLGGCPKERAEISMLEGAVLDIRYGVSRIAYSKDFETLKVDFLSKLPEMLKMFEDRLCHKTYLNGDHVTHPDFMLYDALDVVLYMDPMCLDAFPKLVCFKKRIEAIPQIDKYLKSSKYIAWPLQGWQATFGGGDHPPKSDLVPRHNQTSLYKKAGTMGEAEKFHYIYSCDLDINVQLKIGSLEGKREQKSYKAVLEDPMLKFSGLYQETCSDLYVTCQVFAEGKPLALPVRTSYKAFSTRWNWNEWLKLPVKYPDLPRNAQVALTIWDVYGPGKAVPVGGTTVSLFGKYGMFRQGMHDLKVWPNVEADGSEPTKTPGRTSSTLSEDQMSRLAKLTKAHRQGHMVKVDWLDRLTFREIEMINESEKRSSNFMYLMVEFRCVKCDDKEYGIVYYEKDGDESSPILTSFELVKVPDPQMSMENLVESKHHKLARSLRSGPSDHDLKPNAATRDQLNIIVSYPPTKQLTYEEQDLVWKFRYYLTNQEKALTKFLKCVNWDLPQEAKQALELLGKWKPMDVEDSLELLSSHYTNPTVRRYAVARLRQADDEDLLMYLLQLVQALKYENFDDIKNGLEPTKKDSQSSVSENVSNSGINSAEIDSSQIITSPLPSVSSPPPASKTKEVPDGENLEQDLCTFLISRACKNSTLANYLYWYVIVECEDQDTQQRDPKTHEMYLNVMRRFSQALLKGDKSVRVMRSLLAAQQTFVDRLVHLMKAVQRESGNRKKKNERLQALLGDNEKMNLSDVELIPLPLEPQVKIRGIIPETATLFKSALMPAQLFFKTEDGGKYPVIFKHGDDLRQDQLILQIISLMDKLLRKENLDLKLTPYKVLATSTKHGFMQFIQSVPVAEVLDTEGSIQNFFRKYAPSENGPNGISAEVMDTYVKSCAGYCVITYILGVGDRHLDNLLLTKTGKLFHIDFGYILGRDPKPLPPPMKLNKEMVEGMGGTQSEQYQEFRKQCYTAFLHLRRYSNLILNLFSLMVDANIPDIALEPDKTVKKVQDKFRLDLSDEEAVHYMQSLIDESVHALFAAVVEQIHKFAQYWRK
VPS34 Protein Sequence (Full Length with GST Tag)
A general note: ADP-Glo first removes unused ATP, then detects ADP through luciferase.
A word on the IC50: it is the midpoint of a concentration-inhibition curve. Regarding `Cc1cncc(Nc2cc(-c3cc(N4CCCC[C@@H]4C(F)(F)F)[nH]c(=O)c3)c(C)cn2)n1` [Example 2, (R)-5′-methyl-2′-((6-methylpyrazin-2-yl)amino)-6-(2-(trifluoromethyl)piperidin-1-yl)-[4,4′-bipyridin]-2(1H)-one], the half-inhibitory concentration (IC50) is not above 100 nM. For `Cc1cnc(NC(=O)CC2CN(C)C2)cc1-c1cc(N2CCCC[C@@H]2C(F)(F)F)[nH]c(=O)c1` [Example 3, (R)-N-(5-methyl-2′-oxo-6′-(2-(trifluoromethyl)piperidin-1-yl)-1′,2′-dihydro-[4,4′-bipyridin]-2-yl)-2-(1-methylazetidin-3-yl)acetamide] the value was 100 to 500 nM; for `COC(=O)Nc1ncc(C)c(-c2cc(N3CCCC[C@@H]3C(F)(F)F)[nH]c(=O)c2)n1` [Example 8], 100 to 500 nM; for `CC(=O)Nc1cc(-c2cc(-c3cccnc3C(F)(F)F)[nH]c(=O)c2)c(C)cn1` [Example 9], 100 to 500 nM. Consider `COC(=O)Nc1cc(-c2cc(-c3cccnc3C(F)(F)F)[nH]c(=O)c2)c(C2CC2)cn1` [Example 11], for which the IC50 was in the range of 1000 to 10000 nM.

For `Cc1cnccc1-c1cc(N2CCCC[C@@H]2C(F)(F)F)[nH]c(=O)c1` [Example 13], the IC50 lay within 1000 to 10000 nM. Take `Cc1cnc(NC(=O)CN(C)C)cc1-c1cc(N2CCCC[C@@H]2C(F)(F)F)[nH]c(=O)c1` [Example 19]: the concentration for half-maximal inhibition (IC50) was 1000 to 10000 nM. For the compound `Cc1cnc(NC(=O)CC2CN(C)CC2(F)F)cc1-c1cc(N2CCCC[C@@H]2C(F)(F)F)[nH]c(=O)c1` (stereo partly drawn) [Example 21], the IC50 was in the range of 500 to 1000 nM. As to `Cc1cnc(N)cc1-c1cc(N2CCCC[C@@H]2C(F)(F)F)[nH]c(=O)c1` [Example 23], the half-maximal inhibitory concentration (IC50) was in the range of 1000 to 10000 nM. Consider `Cc1cnc(Nc2cnn(C)c2)cc1-c1cc(N2CCCC[C@@H]2C(F)(F)F)[nH]c(=O)c1` [Example 29], for which the IC50 is 500 to 1000 nM. With `Cc1cnc(NC(=O)OC2CC2)cc1-c1cc(N2CCCC[C@@H]2C(F)(F)F)[nH]c(=O)c1` [Example 30], the IC50 is 100 to 500 nM. For `Cc1cnc(NC(=O)c2cnn(C)c2)cc1-c1cc(N2CCCC[C@@H]2C(F)(F)F)[nH]c(=O)c1` [Example 31] the value was 500 to 1000 nM; for `COC(=O)Nc1cc(-c2cc(N3CCN(S(=O)(=O)CCN(C)C)C[C@@H]3C(F)(F)F)[nH]c(=O)c2)c(C)cn1` [Example 32], 100 to 500 nM. For `Cc1cnc(Nc2cnn(C)c2)cc1-c1cc(-c2cccnc2C(F)(F)F)[nH]c(=O)c1` [Example 33], the IC50 lay within 500 to 1000 nM. For `COC(=O)Nc1cc(-c2cc(N3CCN(S(=O)(=O)CCN(C)C)C[C@@H]3C)[nH]c(=O)c2)c(C)cn1` [Example 34] the value was not above 100 nM; for `CNCCC(=O)Nc1cc(-c2cc(N3CCCC[C@@H]3C(F)(F)F)[nH]c(=O)c2)c(C)cn1` [Example 35], 500 to 1000 nM. Take `COC(=O)Nc1cc(-c2cc(N3CCOC[C@H]3C(F)(F)F)[nH]c(=O)c2)c(C)cn1` [Example 36]: the IC50 lay within 1000 to 10000 nM. Consider `COC(=O)Nc1cc(-c2cc(N3CCOC[C@@H]3C(F)(F)F)[nH]c(=O)c2)c(C)cn1` [Example 37], for which the concentration for half-maximal inhibition (IC50) is not above 100 nM. Then `Cc1cnc(Nc2cn(C)nn2)cc1-c1cc(N2CCCC[C@@H]2C(F)(F)F)[nH]c(=O)c1` [Example 39], with 500 to 1000 nM; and `Cc1cnnc(Nc2cc(-c3cc(N4CCCC[C@@H]4C(F)(F)F)[nH]c(=O)c3)c(C)cn2)c1` [Example 40], with 500 to 1000 nM; and `Cc1cnc(Nc2cnn(C)n2)cc1-c1cc(N2CCCC[C@@H]2C(F)(F)F)[nH]c(=O)c1` [Example 41], with 100 to 500 nM.

Consider `Cc1cnc(Nc2ncn(C)n2)cc1-c1cc(N2CCCC[C@@H]2C(F)(F)F)[nH]c(=O)c1` [Example 42], for which the 50% inhibitory concentration (IC50) is not above 100 nM. For `Cc1cnc(Nc2nnn(C)n2)cc1-c1cc(N2CCCC[C@@H]2C(F)(F)F)[nH]c(=O)c1` [Example 43], the IC50 fell in the range of 100 to 500 nM. For `Cc1ccc(Nc2cc(-c3cc(N4CCCC[C@@H]4C(F)(F)F)[nH]c(=O)c3)c(C)cn2)nn1` [Example 44], the IC50 is not above 100 nM. As for `Cc1cnc(NC(=O)c2cn[nH]c2)cc1-c1cc(N2CCCC[C@@H]2C(F)(F)F)[nH]c(=O)c1` [Example 47], the 50% inhibitory concentration (IC50) lay within 500 to 1000 nM.

Regarding `Cc1cnc(NC(=O)C2CC2)cc1-c1cc(-c2cnccc2C(F)(F)F)[nH]c(=O)c1` [Example 48], the 50% inhibitory concentration (IC50) is 100 to 500 nM.

`COC(=O)Nc1cc(-c2cc(-c3cccnc3C(F)(F)F)[nH]c(=O)c2)c(CF)cn1` [Example 50]: the half-inhibitory concentration (IC50) fell in the range of 1000 to 10000 nM.

Turning to `COC(=O)Nc1cc(-c2cc(-c3cccnc3C(F)(F)F)[nH]c(=O)c2)c(Cl)cn1` [Example 51], the 50% inhibitory concentration (IC50) lay in the range of 1000 to 10000 nM. Regarding `CNC(=O)Nc1cc(-c2cc(-c3cccnc3C(F)(F)F)[nH]c(=O)c2)c(C)cn1` [Example 52], the half-inhibitory concentration (IC50) was in the range of 1000 to 10000 nM. Consider `CNc1cc(-c2cc(N3CCCC[C@@H]3C(F)(F)F)[nH]c(=O)c2)c(C)cn1` [Example 53], for which the half-maximal inhibitory concentration (IC50) lay in the range of 1000 to 10000 nM. `Cc1cnc(NC(=O)OC2CNC2)cc1-c1cc(N2CCCC[C@@H]2C(F)(F)F)[nH]c(=O)c1` [Example 54]: the IC50 was 1000 to 10000 nM. For `Cc1cnc(N)cc1-c1cc(-c2cccnc2C(F)(F)F)[nH]c(=O)c1` [Example 55] the value was 1000 to 10000 nM. For the compound `Cc1cnc(NC2COC2)cc1-c1cc(N2CCCC[C@@H]2C(F)(F)F)[nH]c(=O)c1` [Example 56], the IC50 fell in the range of 1000 to 10000 nM. Then `Cc1cnc(NC(=O)[C@H]2CCN(C)C2)cc1-c1cc(N2CCCC[C@@H]2C(F)(F)F)[nH]c(=O)c1` [Example 57], with 1000 to 10000 nM; and `CNCCC(=O)N1CCN(c2cc(-c3cc(NC(=O)OC)ncc3C)cc(=O)[nH]2)[C@@H](C(F)(F)F)C1` [Example 58], with 1000 to 10000 nM.

On to `Cc1cnc(NC(=O)NC2CC2)cc1-c1cc(N2CCCC[C@@H]2C(F)(F)F)[nH]c(=O)c1` [Example 59], for which the half-inhibitory concentration (IC50) is 1000 to 10000 nM.

In the case of `CNCCC(=O)N1CCN(c2cc(-c3cc(NC(=O)OC)ncc3C)cc(=O)[nH]2)[C@@H](C)C1` [Example 60], the IC50 fell in the range of 1000 to 10000 nM. In the case of `COC(=O)Nc1cc(-c2cc(N3CCN(C(=O)CCN(C)C)C[C@@H]3C(F)(F)F)[nH]c(=O)c2)c(C)cn1` [Example 61], the 50% inhibitory concentration (IC50) lay in the range of 1000 to 10000 nM. Consider `Cc1cnc(NC(=O)C2COC2)cc1-c1cc(N2CCCC[C@@H]2C(F)(F)F)[nH]c(=O)c1` [Example 62], for which the half-inhibitory concentration (IC50) was 1000 to 10000 nM. For `COC(=O)Nc1cc(-c2cc(N3CCN(C(=O)CCN(C)C)C[C@@H]3C)[nH]c(=O)c2)c(C)cn1` [Example 63], the half-maximal inhibitory concentration (IC50) is 1000 to 10000 nM. With `CNCC(=O)Nc1cc(-c2cc(-c3cccnc3C(F)(F)F)[nH]c(=O)c2)c(C)cn1` [Example 64], the IC50 is 1000 to 10000 nM. For `Cc1cnc(NC(=O)[C@@H]2CCN(C)C2)cc1-c1cc(N2CCCC[C@@H]2C(F)(F)F)[nH]c(=O)c1` [Example 65] the value was 1000 to 10000 nM; for `CNCCS(=O)(=O)Nc1ccc(-c2cc(-c3cc(NC(=O)C4CC4)ncc3C)cc(=O)[nH]2)c(C)c1` [Example 66], 100 to 500 nM; for `COC[C@H]1CCCN1c1cc(-c2cc(NC(=O)OC)ncc2C)cc(=O)[nH]1` [Example 67], 1000 to 10000 nM. In the case of `Cc1cnc(NC(=O)c2cnn(C)c2)cc1-c1cc(-c2cccnc2C(F)(F)F)[nH]c(=O)c1` [Example 68], the concentration for half-maximal inhibition (IC50) was in the range of 1000 to 10000 nM. Regarding `Cc1cnc(Nc2cnn(CCN(C)C)c2)cc1-c1cc(N2CCCC[C@@H]2C(F)(F)F)[nH]c(=O)c1` [Example 69], the IC50 is 1000 to 10000 nM. Consider `COC(=O)Nc1cc(-c2cc(-c3cccnc3C3CC3)[nH]c(=O)c2)c(C)cn1` [Example 70], for which the IC50 was in the range of 1000 to 10000 nM. With `Cc1cnc(Nc2ccn(C)n2)cc1-c1cc(N2CCCC[C@@H]2C(F)(F)F)[nH]c(=O)c1` [Example 71], the 50% inhibitory concentration (IC50) was in the range of 1000 to 10000 nM. In the case of `Cc1ccnc(Nc2cc(-c3cc(N4CCCC[C@@H]4C(F)(F)F)[nH]c(=O)c3)c(C)cn2)n1` [Example 72], the IC50 was not above 100 nM.

Regarding `CNCCC(=O)Nc1cc(-c2cc(-c3cccnc3C(F)(F)F)[nH]c(=O)c2)c(C)cn1` [Example 73], the concentration for half-maximal inhibition (IC50) fell in the range of 1000 to 10000 nM. For `Cc1cnc(NC(=O)c2cnn(C3CNC3)c2)cc1-c1cc(N2CCCC[C@@H]2C(F)(F)F)[nH]c(=O)c1` [Example 74] the value was 1000 to 10000 nM; for `CCS(=O)(=O)N1CCN(c2cc(-c3cc(NC(=O)C4CC4)ncc3C)cc(=O)[nH]2)[C@@H](C)C1` [Example 76], 100 to 500 nM. As to `COC(=O)Nc1cc(-c2cc(-c3ccncc3C(F)(F)F)[nH]c(=O)c2)c(C)cn1` [Example 79], the IC50 is 100 to 500 nM. As to `Cc1nc(Nc2cc(-c3cc(N4CCCC[C@@H]4C(F)(F)F)[nH]c(=O)c3)c(C)cn2)no1` [Example 80], the IC50 fell in the range of 1000 to 10000 nM. With `Cc1cnc(NC(=O)C2CC2)cc1-c1cc(N2CCN(S(=O)(=O)C3CC3)C[C@@H]2C)[nH]c(=O)c1` [Example 82], the IC50 is not above 100 nM. Turning to `COCCS(=O)(=O)N1CCN(c2cc(-c3cc(NC(=O)C4CC4)ncc3C)cc(=O)[nH]2)[C@@H](C)C1` [Example 83], the IC50 lay in the range of 100 to 500 nM.

Turning to `Cc1cnc(NC(=O)C2CC2)cc1-c1cc(N2CCN(S(=O)(=O)c3cnn(C)c3)C[C@@H]2C)[nH]c(=O)c1` [Example 84], the IC50 was not above 100 nM. As for `Cc1cnc(NC(=O)C2CC2)cc1-c1cc(N2CCN(S(=O)(=O)CC3CC3)C[C@@H]2C)[nH]c(=O)c1` [Example 85], the half-maximal inhibitory concentration (IC50) was not above 100 nM.

For the compound `Cc1cnc(NC(=O)C2CC2)cc1-c1cc(N2CCN(S(=O)(=O)c3cc(F)ccc3F)C[C@@H]2C)[nH]c(=O)c1` [Example 86], the half-inhibitory concentration (IC50) lay in the range of 100 to 500 nM.

For the compound `COc1ccc(S(=O)(=O)N2CCN(c3cc(-c4cc(NC(=O)C5CC5)ncc4C)cc(=O)[nH]3)[C@@H](C)C2)cc1` [Example 87], the half-inhibitory concentration (IC50) was 100 to 500 nM.
